{"source": "patent US20260226037A1", "about": "“MICROTUBULE TARGETING AGENTS” (ARIEL SCIENTIFIC INNOVATIONS LTD., priority 2022, published 2026)", "key": {"[1]": {"system": "NCI-H69 VCR/R cells", "experiment": "XTT cytotoxicity, NCI-H69 VCR/R", "type": "cell-based", "procedure": "(§1) The cytotoxic activity of the novel family was evaluated against various tumor cells, including myeloma cells, acute lymphoblastic leukemia cells, acute monocytic leukemia cells, chronic myelogenous leukemia cells, pancreatic cancer cells, breast cancer cells, uterine sarcoma cells, cervix adenocarcinoma cells, ovary cancer cells, melanoma cells, osteosarcoma cells, prostate cancer cells, lung cancer cells, neuroblastoma cells and colorectal adenocarcinoma cells by XTT assay."}, "[2]": {"system": "myeloma cell lines", "experiment": "XTT cytotoxicity, 10 different myeloma cell lines", "type": "cell-based", "details": "range over 10 different myeloma cell lines", "procedure": "as §1\nWhen this family of compounds were tested on different cell lines from the same type of tumor with different phenotypes there were no significant differences in cytotoxic sensitivity."}, "[3]": {"system": "HUVEC cells", "experiment": "HUVEC wound scratch-healing migration assay", "type": "cell-based, human", "source_text": "During angiogenesis, endothelial cells proliferate and migrate chemotactically towards angiogenic signals secreted by tumor cells."}, "[4]": {"system": "RPMI8226 myeloma cells", "experiment": "Xenograft murine myeloma model, antitumor efficacy", "type": "in vivo, mice", "procedure": "In vivo anti-cancer efficacy of the molecules was evaluated in a xenograft murine myeloma model. Male SCID mice (6-8 weeks old) were maintained in accordance with Institutional Animal Care Use Committee guidelines. Mice were housed in the Animal Research Facility of Ariel University and experiments were performed in accordance with approved protocols. […] Mice were sacrificed when mean tumor volume of vehicle treated group reached 1500 mm3, or mice appeared moribund to prevent unnecessary morbidity. Mean tumor volume represents the average of tumor volume in each treatment group during the experiment. The weight of the tumors was measured at the end of the experiment and expressed as mean tumor weight per group. Body weight is expressed as mean body mice weight per group. The individual relative tumor volume (RTV) was defined as Vx/V1, where Vx is the mean tumor volume in mm3 at a given time and V1 at the start of treatment. Relative tumor volume is determined by calculating RTV (%) (mean RTV of treated group)/(mean RTV of control group)). Relative tumor volume inhibition is determined by calculating RTVI (%) (1-RTV %)"}, "[5]": {"system": "RPMI-DOX40 cells", "experiment": "XTT cytotoxicity, RPMI-DOX40", "type": "cell-based", "summary_of_the_method": "(§2)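 Cells are exposed to compound and viability is scored by XTT.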"}, "[6]": {"experiment": "Water solubility (microscope images)", "type": "physicochemical", "details": "compared with benzene, furan, thiophene, thiazole or pyridine analogues", "source_text": "Solubility of the synthesized molecules was compared to equivalent molecules having a benzene, furan, thiophene, thiazole or pyridine group instead of oxazole group (Table 2)."}, "[7]": {"system": "MM1.S cells", "experiment": "XTT cytotoxicity, MM1.S", "type": "cell-based", "details": "Homo sapiens, multiple myeloma, non-resistant, read-out: IC50", "summary_of_the_method": "as §2"}, "[8]": {"system": "A2780ADR cells", "experiment": "XTT cytotoxicity, A2780ADR", "type": "cell-based", "procedure": "as §1"}, "[9]": {"system": "purified tubulin", "experiment": "Tubulin polymerization, cell-free assay", "type": "biochemical", "details": "tubulin 2.00 mg/mL; 1, 15 and 30 μM; 37° C., 100 min; vs vehicle", "procedure": "The effect of the compounds on their ability to inhibit tubulin polymerization, was tested against a vehicle control by evaluating polymerization of purified tubulin in a cell-free assay where tubulin (2.00 mg/mL) was exposed to vehicle control or 1, 15 and 30 μM of the compounds (n=2). Polymerizations were tracked by an increase in fluorescence excitation wavelength is 340-360 nm and emission wavelength at 410-460 nm. Fluorescence was monitored at 37° C. every 30 sec for 100 min."}, "[10]": {"system": "MESA/SA and MES-SA/DX5, NALM6 and NALM6/ADR, RPMI8226 and RPMI-DO40 cells", "experiment": "Annexin / propidium iodide staining (apoptosis, necrosis)", "type": "cell-based", "details": "72 hours, graded concentrations"}, "[11]": {"experiment": "Xenograft murine myeloma model, body weight and toxicity signs", "type": "in vivo", "details": "intraperitoneally, during the experiment", "procedure": "In vivo anti-cancer efficacy of the molecules was evaluated in a xenograft murine myeloma model. Male SCID mice (6-8 weeks old) were maintained in accordance with Institutional Animal Care Use Committee guidelines. Mice were housed in the Animal Research Facility of Ariel University and experiments were performed in accordance with approved protocols. During the experiment, RPMI8226 myeloma cells in exponential growth were harvested from culture, washed three times with sterile PBS, counted and resuspended in sterile PBS (1.5×10^7cells mouse/0.1 ml PBS) and subcutaneously injected on the right flank of male C.B-17/IcrHsd-Prkdc-scid, […] mice. After two weeks of cells injection, when tumors reached a size between 30-60 mm3, mice were assigned into different groups (n=3-5) and started receiving treatment. Body weights were determined twice weekly along with tumor volume {V=[length×(width)2]/2}measurements using electronical caliper. Mice were sacrificed when mean tumor volume of vehicle treated group reached 1500 mm3, or mice appeared moribund to prevent unnecessary morbidity.\nThe weight of the tumors was measured at the end of the experiment and expressed as mean tumor weight per group. Body weight is expressed as mean body mice weight per group."}, "[12]": {"system": "colchicine binding site on tubulin protein", "experiment": "EBI competition assay, HELA cells", "type": "cell-based"}, "[13]": {"system": "RPMI 8226 cells", "experiment": "XTT cytotoxicity, RPMI 8226", "type": "cell-based", "details": "Homo sapiens; RPMI 8226, multiple myeloma, non-resistant; read-out: IC50", "summary_of_the_method": "as §2"}, "[14]": {"system": "NALM6 cells", "experiment": "XTT cytotoxicity, NALM6", "type": "cell-based", "details": "Homo sapiens, NALM-6; NALM6, acute lymphoblastic leukemia, non-resistant; read-out: IC50"}, "[15]": {"system": "RPMI-LR5 cells", "experiment": "XTT cytotoxicity, RPMI-LR5", "type": "cell-based", "summary_of_the_method": "as §2"}, "[16]": {"system": "MCF7-VP cells", "experiment": "XTT cytotoxicity, MCF7-VP", "type": "cell-based", "summary_of_the_method": "as §2"}, "[17]": {"system": "acute lymphoblastic leukemia cells", "experiment": "XTT cytotoxicity, acute lymphoblastic leukemia cells", "type": "cell-based", "details": "lowest of the range", "procedure": "as §1"}}, "note": "Entries after “also recorded” stand apart in the source; their conditions may differ.", "data": [{"smiles": "CCCCCOC(=O)c1[nH]c2c(c1C)C(=O)CC(c1ncco1)C2", "note": "(stereo not drawn) [SMS077, pentyl 3-methyl-6-(oxazol-2-yl)-4-oxo-4,5,6,7-tetrahydro-1H-indole-2-carboxylate]", "values": [{"measurement": "IC50", "setting": "[1]; Homo sapiens, NCI-H69 VCR/R, vincristine resistant", "value": 0.048, "unit": "µM"}, {"measurement": "IC50 ratio between resistant and non-resistant cells", "setting": "[1]; NCI-H69 VCR/R / NCI-H69", "value": 0.294}, {"measurement": "resistance of cells to treatment", "setting": "[1]; NCI-H69 VCR/R lung carcinoma cells", "value": "resistant to vincristine but not to SMS077 treatment"}, {"measurement": "IC50", "setting": "[2]", "value": "0.014 to 0.052", "unit": "µM"}, {"measurement": "wound healing density (HUVEC migration)", "setting": "[3]", "value": "decreased wound healing density in a dose and time dependent manner"}, {"measurement": "decrease of tumor volume as compared to vehicle at the same day", "setting": "[4]; day 8, intraperitoneally", "value": 0, "unit": "%"}, {"measurement": "decrease of tumor volume as compared to vehicle at the same day", "setting": "[4]; day 11, intraperitoneally", "value": 40, "unit": "%"}, {"measurement": "decrease of tumor volume as compared to vehicle at the same day", "setting": "[4]; day 25, intraperitoneally", "value": 52, "unit": "%"}, {"measurement": "growth inhibition rate (tumor weight at end of experiment)", "setting": "[4]; intraperitoneally", "value": 54, "unit": "%"}, {"measurement": "IC50", "setting": "[5]; RPMI-DOX40, multiple myeloma, P-gp overexpression, read-out: IC50", "value": 0.025, "unit": "µM"}, {"measurement": "IC50 ratio between resistant and non-resistant cells", "setting": "[5]; RPMI-DOX40 / RPMI 8226", "value": 0.962}, {"measurement": "sensitivity of resistant subline vs parental cells", "setting": "[5]; RPMI-Dox40 vs RPMI8226 (RPMI-S)", "value": "no difference in their sensitivity"}, {"measurement": "water solubility", "setting": "[6]", "value": "better water solubility"}, {"measurement": "IC50", "setting": "[7]", "value": 0.033, "unit": "µM"}, {"measurement": "IC50 ratio between resistant and non-resistant cells", "setting": "[8]; A2780ADR / A2780", "value": 1.938}, {"measurement": "resistance of cells to treatment", "setting": "[8]; A2780ADR ovary carcinoma cells", "value": "resistant to vincristine but not to SMS077 treatment"}, {"measurement": "IC50", "setting": "[8]; A2780 ADR, A2780ADR, ovarian carcinoma, resistant", "value": 0.031, "unit": "µM"}, {"measurement": "rate of tubulin polymerization", "setting": "[9]", "value": "inhibited the rate of tubulin polymerization in a concentration-dependent manner"}, {"measurement": "apoptosis and necrosis (annexin, propidium iodide staining)", "setting": "[10]", "value": "induced apoptosis and necrosis; also recorded: induces apoptosis and necrosis of treated cells"}, {"measurement": "body weight and other signs of potential toxicity", "setting": "[11]", "value": "No significant changes in body weight or other signs of potential toxicity"}, {"measurement": "binding to the colchicine binding site", "setting": "[12]", "value": "bound to the colchicine binding site"}, {"measurement": "IC50", "setting": "[13]", "value": 0.026, "unit": "µM"}, {"measurement": "IC50", "setting": "[14]", "value": 0.019, "unit": "µM"}, {"measurement": "IC50", "setting": "[15]; RPMI-LR5, multiple myeloma, melphalan resistant, read-out: IC50", "value": 0.019, "unit": "µM"}, {"measurement": "IC50 ratio between resistant and non-resistant cells", "setting": "[15]; RPMI-LR5 / RPMI 8226", "value": 0.731}, {"measurement": "sensitivity of resistant subline vs parental cells", "setting": "[15]; RPMI-LR5 vs RPMI8226 (RPMI-S)", "value": "no difference in their sensitivity"}, {"measurement": "IC50", "setting": "[16]; Homo sapiens, MCF7-VP, breast adenocarcinoma, MRP overexpression", "value": 0.56, "unit": "µM"}, {"measurement": "IC50 ratio between resistant and non-resistant cells", "setting": "[16]; MCF7-VP / MCF7", "value": 1.474}, {"measurement": "sensitivity of resistant subline vs parental cells", "setting": "[16]; MCF7-VP vs MCF7", "value": "same sensitivity"}, {"measurement": "IC50", "setting": "[17]", "value": 0.01, "unit": "µM"}]}]}
